Results reported in patent US10723716B2, “Alpha-helix mimetics as modulators of Abeta self-assembly” (New York University, priority 2016, dated 2020).

What was measured:
Aβ40 [1] = biological target: T1, Aβ40 (Homo sapiens, UniProt P05067); assay: Circular dichroism (CD) spectroscopy of Aβ40; assay type: biochemical; conditions: Aβ40, equimolar ratio
T1 construct: Cleavage of APP results in several Aβ isoforms; The predominant species are Aβ42 and Aβ40; purchased Anaspec (Fremont, Calif., USA)
Procedure: A second set of compounds was identified as potent inhibitors of Aβ aggregation. In contrast to ADH-41, they are negatively charged. […] The absorbance increased gradually from 0 to 6 h indicating an increase in the amount of soluble oligomers of Aβ42. […] A time-dependent increase in the amount of the A11-sensitive Aβ42 oligomeric structures was reflected in the progressive enhancement in the chemiluminescence intensity of the dots, which reached a maximum intensity around 6 h (FIG. 27g). The intensity decreased after 12 h, due to formation of fibers that are not sensitive to the A11 antibody. […] The far UV-CD spectrum of a sample of 20 μM Aβ40 transitioned from that of a random coil to a β-sheet conformation over 24 h (FIG. 27h).
(§1) A freshly prepared stock solution of Aβ42 (500 μM) was diluted to 15 μM in phosphate buffer for CD measurements. The spectra of Aβ42 in the absence and presence of the compounds of the invention were recorded at 0.5 nm intervals from 190 to 260 nm with an averaging time of 10 sec. and an average of three repeats on a Aviv Stopped Flow CD Spectropolarimeter (Model 202SF).

Aβ40 [2] = biological target: T1, Aβ40; assay: Transmission electron microscopy (TEM) of Aβ40; assay type: biochemical
Aβ42 [3] = biological target: T2, Aβ42 (Homo sapiens, UniProt P05067); assay: Circular dichroism (CD) spectroscopy of Aβ42; assay type: biochemical; conditions: 15 μM Aβ42, equimolar ratio, after 24 h
T2 construct: Cleavage of APP results in several Aβ isoforms; The predominant species are Aβ42 and Aβ40; purchased Anaspec (Fremont, Calif., USA)
T2 sequence (P05067 672-713 limits assumed): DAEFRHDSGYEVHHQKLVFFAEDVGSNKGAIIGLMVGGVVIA
Procedure: as §1

Aβ40 [4] = biological target: T1, Aβ40; assay: Isothermal titration calorimetry (ITC); assay type: binding
Procedure: ITC experiments were performed in a NANO-ITC (TA instruments, New Castle, Del., USA). […] The heat associated with each injection was calculated by integrating each heat burst curve using NanoAnalyze software (New Castle, Del., USA). […] No parameter was constrained during the fitting. The data were extracted from the best fit after 10,000 iterations.

Aβ40 [5] = biological target: T1, Aβ40; assay: Seed-catalyzed kinetic assay, Aβ40; assay type: biochemical; conditions: 20 μM Aβ40, 10% seeds, equimolar ratio
Procedure: Seeds of Aβ40/Aβ42 were prepared by incubating 200 μM of Aβ40/Aβ42 in phosphate buffer at room temperature. The samples were aged for 48 h and the formation of fibers was confirmed by TEM and ThT before storage at −20° C. until use. For the aggregation of Aβ40, 10% (based on the monomeric Aβ40, v/v) seeds were added along with ThT in phosphate buffer to the 96-well plate. The aggregation was initiated by the addition of monomeric Aβ40 followed by gentle mixing. The process was similar in the case of Aβ42 except that the seed concentration was 5% (based on the monomeric Aβ42, v/v).
The seeds were generated by aging 200 μM Aβ peptides for 48 h in phosphate buffer with occasional vortexing. The concentration of seeds was calculated based on the monomeric concentration of Aβ.

[6] = DLS and UV-Vis probe of colloidal aggregation of the compound; assay type: physicochemical
Procedure: UV-Vis was employed to probe the chemical aggregation of ADH-41 under kinetic assay conditions. The measurements were carried out on a double beam Carry 100 Bio spectrophotometer (Agilent Technologies, Santa Clara, Calif.) controlled by Cary WinUV software (version=3.0).
Dynamic light scattering (DLS) and ultraviolet-visible (UV-Vis) spectroscopy was employed to probe the micelle forming capacity of ADH-41.

Aβ42 [7] = biological target: T2, Aβ42; assay: PICUP SDS-PAGE of Aβ42 oligomers; assay type: biochemical; conditions: 5 μM Aβ42, equimolar ratio
Procedure: The reaction mixture was irradiated for 30 s using filament lamp (power=150 W) by keeping it 20 cm away from the bottom of the reaction tubes. The cross-linking reaction was then quenched immediately with dithiothreitol (1 M, 1 μL, Sigma Aldrich, St. Louis, Mo., USA). The samples were incubated on ice for 15 min. followed by the addition of SDS buffer. The samples were heated at 90° C. for 5 min. and then centrifuged. […] The samples were applied to Nu-PAGE electrophoresis in 12% Bis-Tris gels with SDS-PAGE buffer. The protein samples were stained with a silver stain kit from Sigma Aldrich (St. Louis, Mo., USA).

N2a cells = assay: Confocal fluorescence microscopy, cellular uptake; assay type: cell-based, mouse; conditions: 24 h incubation
Procedure: N2a cells were seeded at a density of 5×10^4 cells/well in 500 μL complete medium in 4-chambered 35 mm glass bottom Cellview cell culture dishes (Greiner Bio-One, Monroe, N.C., USA). […] For mitochondrial colocalization experiments, 50 nM MitoTracker Red FM or MitoTracker Green FM (Thermo Fisher Scientific, Waltham, Mass., USA) was added to the chambers and incubated for 15 min. Thereafter, the medium was removed, the cells were washed with PBS to remove any extracellular peptide, inhibitor or organelle marker, and 300 μL phenol red- and serum-free medium was added to each chambers of the cell culture dish. Imaging was done on an Olympus Fluoview FV1000MPE Confocal/2—Photon microscope, using a 63× Plan-Apo/1.3 NA oil immersion objective with DIC capability. Image processing was done using the Fiji image processing software according to known methodology (Schindelin, J.; Arganda-Carreras, I.; Frise, E.; Kaynig, V.; Longair, M.; Pietzsch, T.; Preibisch, S.; Rueden, C.; Saalfeld, S.; Schmid, B.; Tinevez, J. Y.; White, D. J.; Hartenstein, V.; Eliceiri, K.; Tomancak, P.; Cardona, A. Nat. Methods 2012, 9, 676-682).

Aβ42 [8] = biological target: T2, Aβ42; assay: Dynamic light scattering of Aβ42 species; assay type: biochemical
Procedure: The particle size distribution of 5 μM Aβ42 increased from a range of hydrodynamic radii of 40-80 nm to 100-500 nm after incubation for 24 h (FIG. 4a).

T1 sequence (P05067 672-711 limits assumed): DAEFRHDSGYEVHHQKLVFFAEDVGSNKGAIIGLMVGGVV

β-sheet formation of Aβ40 (far UV-CD) (Aβ40 [1])	conformation of Aβ40 (far UV-CD) (Aβ40 [1]; stable after 48 h)	fiber formation of Aβ40 seen by TEM (Aβ40 [2]; Aβ40 incubated with ADH-41, after 5 days)	aggregates of Aβ40 seen by TEM (Aβ40 [2]; equimolar ratio)	Aβ40 species seen by TEM (Aβ40 [2]; substoichiometric ratio 1:0.1 (Aβ40:ADH-41))	β-sheet formation of Aβ42 (far UV-CD) (Aβ42 [3])	Kd (Aβ40 [4]) [nM]	effect on seed-catalyzed Aβ40 fibrillation (Aβ40 [5])	concentration range over which absorbance is linear ([6]; absorbance at 351 nm, phosphate buffer pH 7.4) [µM]	diameter (from volume) of compound particles by DLS ([6]; phosphate buffer (150 mM KCl, 50 mM NaPi, pH 7.4), 20° C.)	higher order oligomers of Aβ42 (PICUP, SDS-PAGE) (Aβ42 [7]; 24 h and 36 h)	higher order oligomers of Aβ42 (PICUP, SDS-PAGE) (Aβ42 [7]; up to 12 h)	cell permeability (N2a cells)	hydrodynamic radii of Aβ42 particles (Aβ42 [8]; 5 μM Aβ42, equimolar ratio, 24 h incubation)	change in particle size of Aβ42-ADH-41 complex (Aβ42 [8]; after 3 days)	SMILES
no β-sheet formation was observed	adopts an α-helical conformation														COC(=O)c1ccc(NC(=O)c2ccc(NC(=O)c3ccc(NC(=O)c4ccc([N+](=O)[O-])c(OCC(C)C)n4)c(OCc4ccccc4)n3)c(OCC(=O)O)n2)c(OCC(=O)O)n1 [ADH-31]
		scant evidence of fiber formation	No aggregates were visible	short protofibrils	No formation of β-sheet structure	700 ± 100	completely arrested	10 to 100	below 10 nm	sparse populations	no higher order oligomers	good cell permeability	50-100 nm	No change	COC(=O)c1ccc(NC(=O)c2ccc(NC(=O)c3ccc([N+](=O)[O-])c(OCc4ccccc4)n3)c(OCCCN)n2)c(OCCCN)n1 [ADH-41]
